Source: patent publication US10336762B2 (priority 2017, dated 2019)
pEC50, pIC50: −log10 of the molar value. Like-named read-outs stand apart in the source and are kept apart here.

Tests used:
[1] = tested on: TNFα; test: cells; format: cell-based, human; settings: LPS-stimulated human monocytes, TNFα content, read-out: EC50 TNF
[2] = molecular target: IRAK4 enzyme (Homo sapiens (Human), UniProt Q9NWZ3); test: biochemical; format: biochemical; settings: IRAK4 enzyme, TR-FRET, 500 μM ATP
IRAK4 enzyme, sequence (Q9NWZ3 whole entry): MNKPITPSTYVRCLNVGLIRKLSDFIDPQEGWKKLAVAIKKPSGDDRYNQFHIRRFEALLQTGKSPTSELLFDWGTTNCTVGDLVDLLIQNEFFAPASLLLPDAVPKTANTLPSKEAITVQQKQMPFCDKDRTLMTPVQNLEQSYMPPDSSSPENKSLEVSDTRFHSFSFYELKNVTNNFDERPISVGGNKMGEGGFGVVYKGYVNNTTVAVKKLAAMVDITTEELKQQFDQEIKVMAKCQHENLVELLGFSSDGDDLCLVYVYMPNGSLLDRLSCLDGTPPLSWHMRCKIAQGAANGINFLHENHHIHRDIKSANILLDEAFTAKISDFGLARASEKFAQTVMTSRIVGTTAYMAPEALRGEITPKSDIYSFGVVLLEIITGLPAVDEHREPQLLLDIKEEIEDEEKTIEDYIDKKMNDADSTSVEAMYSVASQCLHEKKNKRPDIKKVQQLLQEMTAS

SMILES | pEC50 ([1]; Homo sapiens, Monocyte) | pIC50 [2] | pEC50 [1]
CC(C)Nc1cc(-c2ccc3cc(C#N)cnn23)ncc1C(=O)NCCS(N)(=O)=O [Example 20, 6-(3-cyanopyrrolo[1,2-b]pyridazin-7-yl)-4-(isopropyl-amino)-N-(2-sulfamoylethyl)nicotinamide] | 6.89 | 8.70 | 
CC(C)Nc1cc(-c2ccc3cc(C#N)cnn23)ncc1C(=O)NCCc1ccc(S(N)(=O)=O)cc1 [Example 21, 6-(3-cyanopyrrolo[1,2-b]pyridazin-7-yl)-4-(isopropylamino)-N-(4-sulfamoylphenethyl) nicotinamide] | 7.16 | > 9.00 | 
CNC(=O)C1CCC(NC(=O)c2cnc(-c3ccc4cc(C#N)cnn34)cc2NC(C)C)CC1 (stereo not shown) [Example 22, 6-(3-cyanopyrrolo[1,2-b]pyridazin-7-yl)-4-(isopropyl-amino)-N-((1r,4r)-4-(methylcarbamoyl)cyclohexyl) nicotinamide] | 7.06 | > 9.00 | 
CC(C)(O)[C@H](F)CNC(=O)c1cnc(-c2ccc3cc(C#N)cnn23)cc1NC1CCNCC1 [Example 23, (R)-6-(3-cyanopyrrolo[1,2-b]pyridazin-7-yl)-N-(2-fluoro-3-hydroxy-3-methylbutyl)-4-(piperidin-4-ylamino)nicotinamide] | 6.17 | 8.52 | 
CC(C)(O)[C@H](F)CNC(=O)c1cnc(-c2ccc3cc(C#N)cnn23)cc1NC1CC2CCC(C1)N2 (stereo partly drawn) [Example 24, 4-(((1R,3s,5S)-8-azabicyclo[3.2.1]octan-3-yl)amino)-6-(3-cyanopyrrolo[1,2-b]pyridazin-7-yl)-N-((R)-2-fluoro-3-hydroxy-3-methylbutyl)nicotinamide] |  | 8.70 | 6.19
CC(C)(O)[C@H](F)CNC(=O)c1cnc(-c2ccc3cc(C#N)cnn23)cc1NC1CC2CCC(C1)N2S(C)(=O)=O (stereo partly drawn) [Example 29, 6-(3-cyanopyrrolo[1,2-b]pyridazin-7-yl)-N-((R)-2-fluoro-3-hydroxy-3-methylbutyl)-4-(((1R,3s,5S)-8-(methylsulfonyl)-8-azabicyclo[3.2.1]octan-3-yl)amino)nicotinamide] |  | > 9.00 | 7.00
CC(C)(O)[C@H](F)CNC(=O)c1cnc(-c2ccc3cc(C#N)cnn23)cc1NC1C2CC1CN(S(C)(=O)=O)C2 (stereo partly drawn) [Example 30, 6-(3-cyanopyrrolo[1,2-b]pyridazin-7-yl)-N-((R)-2-fluoro-3-hydroxy-3-methyl-butyl)-4-((3-(methylsulfonyl)-3-azabicyclo[3.1.1]heptan-6-yl)amino)nicotinamide] | 6.14 | 8.52 | 
CC(C)(O)[C@H](F)CNC(=O)c1cnc(-c2ccc3cc(C#N)cnn23)cc1NC1C2CCC1CN(S(C)(=O)=O)C2 (stereo partly drawn) [Example 31, 6-(3-cyanopyrrolo[1,2-b]pyridazin-7-yl)-N-((R)-2-fluoro-3-hydroxy-3-methylbutyl)-4-((3-(methylsulfonyl)-3-azabicyclo[3.2.1]octan-8-yl)amino)nicotinamide] | 6.12 | 7.80 | 
CC(C)(O)[C@H](F)CNC(=O)c1cnc(-c2ccc3cc(C#N)cnn23)cc1N[C@H]1C[C@@H]2C[C@H]1CN2 [Example 32, 4-(((1S,4S,5S)-2-azabicyclo[2.2.1]heptan-5-yl)amino)-6-(3-cyano-pyrrolo[1,2-b]pyridazin-7-yl)-N-((R)-2-fluoro-3-hydroxy-3-methylbutyl)nicotinamide] | < 5.00 | 8.52 | 
CC(C)(C)Nc1cc(-c2ccc3cc(C#N)cnn23)ncc1C(=O)NC[C@@H](F)C(C)(C)O [Example 33, (R)-4-(tert-butylamino)-6-(3-cyanopyrrolo[1,2-b]pyridazin-7-yl)-N-(2-fluoro-3-hydroxy-3-methylbutyl)nicotinamide] | 7.54 | > 9.00 | 
CC(C)Nc1cc(-c2ccc3cc(C#N)cnn23)ncc1C(=O)NS(C)(=O)=O [Example 34, 6-(3-cyanopyrrolo[1,2-b]pyridazin-7-yl)-4-(isopropylamino)-N-(methylsulfonyl) nicotinamide] | < 5.00 | 5.03 | 
CC(C)Nc1cc(-c2ccc3cc(C#N)cnn23)ncc1C(=O)N[C@H]1CCOC1 [Example 36, (S)-6-(3-cyanopyrrolo[1,2-b]pyridazin-7-yl)-4-(isopropylamino)-N-(tetrahydrofuran-3-yl) nicotinamide] | 6.66 | 7.82 | 
CC(C)Nc1cc(-c2ccc3cc(C#N)cnn23)ncc1C(=O)N[C@@H]1CCOC1 [Example 37, (R)-6-(3-cyanopyrrolo[1,2-b]pyridazin-7-yl)-4-(isopropylamino)-N-(tetrahydrofuran-3-yl) nicotinamide] | 6.55 | 7.92 | 
CNC(=O)c1cnc(-c2ccc3cc(C#N)cnn23)cc1NC(C)C [Example 38, 6-(3-cyanopyrrolo[1,2-b]pyridazin-7-yl)-4-(isopropylamino)-N-methylnicotinamide] | 7.04 | 8.70 | 
CC(C)Nc1cc(-c2ccc3cc(C#N)cnn23)ncc1C(N)=O [Example 39, 6-(3-cyanopyrrolo[1,2-b]pyridazin-7-yl)-4-(isopropylamino) nicotinamide] | 6.29 | 8.40 | 
CC(C)(O)[C@H](F)CNC(=O)c1cnc(-c2ccc3cc(C#N)cnn23)cc1NC1CC(F)(F)C1 [Example 40, (R)-6-(3-cyanopyrrolo[1,2-b]pyridazin-7-yl)-4-((3,3-difluorocyclobutyl)amino)-N-(2-fluoro-3-hydroxy-3-methylbutyl)nicotinamide] | 7.14 | > 9.00 | 
CC(C)Nc1cc(-c2ccc3cc(C#N)cnn23)ncc1C(=O)NCCC(C)(C)O [Example 41, 6-(3-cyanopyrrolo[1,2-b]pyridazin-7-yl)-N-(3-hydroxy-3-methylbutyl)-4-(isopropylamino) nicotinamide] | 7.11 | > 9.00 | 
CC(C)(O)[C@H](F)CNC(=O)c1cnc(-c2ccc3cc(C#N)cnn23)cc1NC1CCOCC1 [Example 42, (R)-6-(3-cyanopyrrolo[1,2-b]pyridazin-7-yl)-N-(2-fluoro-3-hydroxy-3-methylbutyl)-4-((tetrahydro-2H-pyran-4-yl)amino)nicotinamide] | 7.46 | > 9.00 | 
CC(C)(O)[C@H](F)CNC(=O)c1cnc(-c2ccc3cc(C#N)cnn23)cc1Nc1cnn(C2COC2)c1 [Example 43, (R)-6-(3-cyanopyrrolo[1,2-b]pyridazin-7-yl)-N-(2-fluoro-3-hydroxy-3-methyl-butyl)-4-((1-(oxetan-3-yl)-1H-pyrazol-4-yl)amino) nicotinamide] | 7.52 | > 9.00 | 
CC(C)(O)[C@H](F)CNC(=O)c1cnc(-c2ccc3cc(C#N)cnn23)cc1NN1CCOCC1 [Example 44, (R)-6-(3-cyanopyrrolo[1,2-b]pyridazin-7-yl)-N-(2-fluoro-3-hydroxy-3-methylbutyl)-4-(morpholinoamino) nicotinamide] | < 5.00 | 5.18 | 
CC(C)Nc1cc(-c2ccc3cc(C#N)cnn23)ncc1C(=O)NC1CC1CO (stereo not shown) [Example 45, 6-(3-cyanopyrrolo[1,2-b]pyridazin-7-yl)-N-(2-(hydroxymethyl)cyclopropyl)-4-(isopropylamino) nicotinamide] | 6.59 | 8.00 | 
CC(C)(O)[C@H](F)CNC(=O)c1cnc(-c2ccc3cc(C#N)cnn23)cc1NC1CCN(S(C)(=O)=O)CC1 [Example 46, (R)-6-(3-cyanopyrrolo[1,2-b]pyridazin-7-yl)-N-(2-fluoro-3-hydroxy-3-methylbutyl)-4-((1-(methylsulfonyl)piperidin-4-yl)amino)nicotinamide] | 7.43 | > 9.00 | 
Cn1cc(Nc2cc(-c3ccc4cc(C#N)cnn34)ncc2C(=O)NC[C@@H](F)C(C)(C)O)cn1 [Example 47, (R)-6-(3-cyanopyrrolo[1,2-b]pyridazin-7-yl)-N-(2-fluoro-3-hydroxy-3-methylbutyl)-4-((1-methyl-1H-pyrazol-4-yl)amino)nicotinamide] | 7.43 | > 9.00 | 
CC(C)(O)[C@H](F)CNC(=O)c1cnc(-c2ccc3cc(C#N)cnn23)cc1Nc1cnn(C(F)F)c1 [Example 48, (R)-6-(3-cyanopyrrolo[1,2-b]pyridazin-7-yl)-4-((1-(difluoromethyl)-1H-pyrazol-4-yl)amino)-N-(2-fluoro-3-hydroxy-3-methylbutyl)nicotinamide] | 7.55 | > 9.00 | 
CC(C)(O)[C@H](F)CNC(=O)c1cnc(-c2ccc3cc(C#N)cnn23)cc1Nc1cnn(CC(F)(F)F)c1 [Example 49, (R)-6-(3-cyanopyrrolo[1,2-b]pyridazin-7-yl)-N-(2-fluoro-3-hydroxy-3-methylbutyl)-4-((1-(2,2,2-trifluoroethyl)-1H-pyrazol-4-yl)amino)nicotinamide] | 8.10 | > 9.00 | 
CC(C)(O)[C@H](F)CNC(=O)c1cnc(-c2ccc3cc(C#N)cnn23)cc1NC1CC2CCC(C1)O2 (stereo partly drawn) [Example 50, 4-(8-oxabicyclo[3.2.1]octan-3-ylamino)-6-(3-cyanopyrrolo[1,2-b]pyridazin-7-yl)-N-((R)-2-fluoro-3-hydroxy-3-methylbutyl) nicotinamide] | 6.45 | 8.52 | 
CC(C)(O)[C@H](F)CNC(=O)c1cnc(-c2ccc3cc(C#N)cnn23)cc1N[C@@H]1CCN(S(C)(=O)=O)C1 [Example 53, 6-(3-cyanopyrrolo[1,2-b]pyridazin-7-yl)-N-((R)-2-fluoro-3-hydroxy-3-methylbutyl)-4-(((R)-1-(methylsulfonyl)pyrrolidin-3-yl)amino)nicotinamide] | 7.19 | > 9.00 | 
CC(C)(O)[C@H](F)CNC(=O)c1cnc(-c2ccc3cc(C#N)cnn23)cc1NC1COC1 [Example 54, (R)-6-(3-cyanopyrrolo[1,2-b]pyridazin-7-yl)-N-(2-fluoro-3-hydroxy-3-methylbutyl)-4-(oxetan-3-ylamino)nicotinamide] | 7.59 | > 9.00 | 
CCn1cc(Nc2cc(-c3ccc4cc(C#N)cnn34)ncc2C(=O)NC[C@@H](F)C(C)(C)O)cn1 [Example 56, (R)-6-(3-cyanopyrrolo[1,2-b]pyridazin-7-yl)-4-((1-ethyl-1H-pyrazol-4-yl)amino)-N-(2-fluoro-3-hydroxy-3-methylbutyl)nicotinamide] | 7.89 | > 9.00 | 
